Data set [1] in a line: Intrinsic clearance in dog liver microsomes incubated for 6 hrs by LC/MS analysis. It is filed as ADME, Canis lupus familiaris, Microsome. As to conditions: read-out: CLH. In general terms: Liver microsomes are vesicles of endoplasmic reticulum, rich in cytochrome P450 enzymes.
Data set [2] can be described thus: Intrinsic clearance in mouse liver microsomes incubated for 6 hrs by LC/MS analysis. It is filed as ADME, Microsome. As to conditions: read-out: CLH.
Data set [3] is described as follows: Half life in rat liver microsomes incubated for 6 hrs by LC/MS analysis. It is filed as ADME, Microsome.
A short description of data set [4]: Half life in dog liver microsomes incubated for 6 hrs by LC/MS analysis. It is filed as ADME, Canis lupus familiaris, Microsome.
The nature of data set [5]: Half life in monkey liver microsomes incubated for 6 hrs by LC/MS analysis. It is filed as ADME, Macaca mulatta, Microsome. As to conditions: rhesus monkey.
Data set [6] in a line: Intrinsic clearance in human liver microsomes incubated for 6 hrs by LC/MS analysis. It is filed as ADME, Microsome. As to conditions: read-out: CLH.
Data set [7] in a line: Intrinsic clearance in monkey liver microsomes incubated for 6 hrs by LC/MS analysis. As to conditions: rhesus monkey, read-out: CLH. It is filed as ADME, Macaca mulatta, Microsome.
Data set [8] is described as follows: Intrinsic clearance in Rat liver microsomes incubated for 6 hrs by LC/MS analysis. It is filed as ADME, Microsome. As to conditions: read-out: CLH.
Data set [9] can be described thus: Half life in human liver microsomes incubated for 6 hrs by LC/MS analysis. It is filed as ADME, Microsome.
Data set [10] is described as follows: Half life in mouse liver microsomes incubated for 6 hrs by LC/MS analysis. It is filed as ADME, Microsome.
The subject of data set [11] is Mus musculus. Put plainly: Anti-inflammatory activity in DNFB-induced mouse ear edema model assessed as inhibition in ear swelling at 5 mg/kg relative to control. It is filed as functional.
The species named for data set [12] is Mus musculus. As to conditions: BALB/C, at 5 mg/kg.
The nature of data set [13]: Toxicity in Sprague-Dawley rat. As to conditions: in vivo.
The nature of data set [14]: Clearance in ICR mouse at 2.5 mg/kg, iv. As to conditions: in vivo. It is filed as ADME, organism-based.
A short description of data set [15]: Half life in ICR mouse at 2.5 mg/kg, iv. It is filed as ADME, organism-based. As to conditions: in vivo.
Data set [16] can be described thus: Toxicity in ICR mouse. As to conditions: in vivo.
Data set [17] can be described thus: Oral bioavailability in Sprague-Dawley rat at 10 mg/kg. As to conditions: in vivo. It is filed as ADME, organism-based.
Data set [18] can be described thus: Half life in Sprague-Dawley rat at 10 mg/kg, po. It is filed as ADME, organism-based. As to conditions: in vivo.
The nature of data set [19]: Clearance in Sprague-Dawley rat at 2 mg/kg, iv. It is filed as ADME, organism-based. As to conditions: in vivo.
A short description of data set [20]: Half life in Sprague-Dawley rat at 2 mg/kg, iv. It is filed as ADME, organism-based. As to conditions: in vivo.
Data set [21] concerns Mus musculus. Put plainly: Immunosuppressive activity in BALB/C mouse assessed as inhibition in TNFalpha production by TNFalpha level at 5 mg/kg by ELISA. It is filed as functional. For orientation: An ELISA detects its analyte on a solid surface through an enzyme-linked reagent.

Active and inactive are the calls of the source. The rule behind the calls is not given here.

What is called half-life is the time in which the quantity being followed falls by half. Consider `Cc1ncc2n1-c1ccc(Cl)cc1C(c1ccccc1F)=NC2` [MIDAZOLAM], for which the microsomal CLint was 1230 µL/min/mg in data set [1]; 430 µL/min/mg in [2]; 289 µL/min/mg in data set [6]; 927 µL/min/mg in data set [7]; 808 µL/min/mg in data set [8]. Also, the half-life worked out at 4.29 min in data set [3]; 2.81 min in [4]; 3.74 min in [5]; 12 min in data set [9]; 8.06 min in data set [10].
As usually defined, the inhibition in vivo is the percentage by which the read-out fell short of the control. For `OC(COc1ccccc1)CN1CCC(=C2c3ccc(Cl)cc3CCc3cccnc32)CC1` (configuration not stated), in the data set with Mus musculus [11], the inhibition in vivo at 5 mg/kg stood at 59.1%. For the same molecule, the inhibition result in the data set filed under Mus musculus [12] is “Active”.
In general, clearance refers to a measure of how efficiently the substance is removed, as volume per time. One may read the bioavailability as dose-corrected exposure relative to a reference, in per cent. For `COc1ccccc1OCC(O)CN1CCC(=C2c3ccc(Cl)cc3CCc3cccnc32)CC1` (racemic), the microsomal CLint in [1] came out at 158 µL/min/mg; in data set [2], 945 µL/min/mg; in data set [6], 179 µL/min/mg; in data set [8], 359 µL/min/mg. The MTD in data set [13] and in [16] was 750 mg/kg in each case. The clearance in data set [14] was 99.5 mL/min/kg; in data set [19] it was 19.6 mL/min/kg. Also, the half-life in data set [3] is 3.87 min; in [15] it was 28.2 min; in [4], 8.76 min; in data set [18], 84 min; in data set [20], 54 min; in [9], 7.74 min. This molecule came in with a half-life in [10] of 1.47 min. Moreover, the bioavailability in [17] came out at 18%. The inhibition in vivo at 5 mg/kg with Mus musculus [11] turned out to be 59.2%. The Activity in the data set with Mus musculus [21] was found to be 1.14 ng/mL.
For the molecule `COc1ccccc1OC[C@H](O)CN1CCC(=C2c3ccc(Cl)cc3CCc3cccnc32)CC1`, the Activity with Mus musculus [21] was determined as 1.21 ng/mL.
For the molecule `OC(COc1ccccc1F)CN1CCC(=C2c3ccc(Cl)cc3CCc3cccnc32)CC1` (configuration not stated), in the data set with Mus musculus [11], the inhibition in vivo at 5 mg/kg is 26%. Moreover, the inhibition result in the data set filed under Mus musculus [12] is “Active”.
One may read the LD50 as the dose expected to kill half of the subjects tested. For `Clc1ccc2c(c1)CCc1cccnc1C2=C1CCNCC1` [DESLORATADINE], the LD50 in data set [13] and in data set [16] was 250 mg/kg each time.
On to `COc1ccccc1OCCCN1CCC(=C2c3ccc(Cl)cc3CCc3cccnc32)CC1`, for which, in the data set with Mus musculus [11], the inhibition in vivo at 5 mg/kg amounted to 59.5%. Also, the inhibition entry in the data set listed under Mus musculus [12] is “Active”.
With `COc1ccccc1OC[C@@H](O)CN1CCC(=C2c3ccc(Cl)cc3CCc3cccnc32)CC1`, the Activity in the data set with Mus musculus [21] is 1.18 ng/mL.
Turning to `Cc1ccccc1OCC(O)CN1CCC(=C2c3ccc(Cl)cc3CCc3cccnc32)CC1` (configuration not stated), in the data set on Mus musculus [11], the inhibition in vivo at 5 mg/kg was found to be 59.1%. The inhibition result in the data set filed under Mus musculus [12] was “Active”.
Regarding `COc1cccc(OCC(O)CN2CCC(=C3c4ccc(Cl)cc4CCc4cccnc43)CC2)c1` (configuration not stated), in the data set with Mus musculus [11], the inhibition in vivo at 5 mg/kg was determined as 43.1%. Further, the inhibition entry in the data set filed under Mus musculus [12] was “Active”.

(Values after ChEMBL document CHEMBL4406894, “Design, synthesis and biological evaluation of novel desloratadine derivatives with anti-inflammatory and H1 antagonize activities” (Bioorg Med Chem Lett, 2019).)
